Measured values taken from the supplement of paper PMC10331698.
± gives the standard deviation of the averaged measurements.

Experiments:
Assay in all cases: level (log10 ratio to DMSO vehicle control); higher = higher biomarker level / cell amount than vehicle control
Conditions in all cases: in DMSO
[1] = compound: COC(=O)C(F)(F)C(F)(F)OC(F)(C(F)(F)F)C(F)(F)OC(F)=C(F)F [Methyl perfluoro(3-(1-ethenyloxypropan-2-yloxy)propanoate)]
Procedure: (§1)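 BioMAP Diversity Plus panel of 12 human primary cell co-culture systems (3C, 4H, LPS, SAg, BT, BF4T, BE3C, CASM3C, HDF3CGF, KF3CT, MyoF, Mphg). Compounds were added 1 h before stimulation and left for 24 h (MyoF 48 h; BT 72 h for soluble read-outs or 6 d for IgG). Biomarkers were read by ELISA, cytotoxicity by SRB, PBMC viability and proliferation by Alamar Blue. Each well value was divided by the mean of 8 DMSO control wells on the same plate and log10 transformed; duplicate blinded samples were tested at 4 concentrations.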

[2] = compound: FC(F)(F)C(F)(F)C(F)(F)C(F)(F)C(F)(F)C(F)(F)CC1CO1 [3-(Perfluorohexyl)-1,2-epoxypropane]
Procedure: as §1

[3] = compound: FC(F)(F)C(F)(F)C(F)(F)CC1CO1 [1H,1H-Heptafluorobutyl epoxide]
Procedure: as §1

Heptafluorobutyl iodide = compound: FC(F)(F)C(F)(F)C(F)(F)CI [Heptafluorobutyl iodide]
Procedure: as §1

Nonafluoropentanamide = compound: NC(=O)C(F)(F)C(F)(F)C(F)(F)C(F)(F)F [Nonafluoropentanamide]
Procedure: as §1

[4] = compound: NC(=O)C(F)(F)C(F)(F)C(F)(F)C(F)F
Procedure: as §1

[5] = compound: O=C(O)C(F)(F)C(F)(F)C(F)(F)C(F)(F)C(F)(F)C(F)(F)C(F)(F)C(F)(F)C(F)(F)C(F)F [11-H-Perfluoroundecanoic acid]
Procedure: as §1

| Test System | level (log10) ([1]; 6700 nM) | level (log10) ([1]; 20000 nM) | level (log10) ([2]; 6700 nM) | level (log10) ([2]; 20000 nM) | level (log10) ([2]; 60000 nM) | level (log10) ([3]; 6700 nM) | level (log10) ([3]; 20000 nM) | level (log10) ([3]; 60000 nM) | level (log10) (Heptafluorobutyl iodide; 6700 nM) | level (log10) (Heptafluorobutyl iodide; 20000 nM) | level (log10) (Heptafluorobutyl iodide; 60000 nM) | level (log10) (Nonafluoropentanamide; 6700 nM) | level (log10) (Nonafluoropentanamide; 20000 nM) | level (log10) (Nonafluoropentanamide; 60000 nM) | level (log10) ([4]; 6700 nM) | level (log10) ([4]; 20000 nM) | level (log10) ([4]; 60000 nM) | level (log10) ([5]; 6700 nM) | level (log10) ([5]; 20000 nM) |
| --- | --- | --- | --- | --- | --- | --- | --- | --- | --- | --- | --- | --- | --- | --- | --- | --- | --- | --- | --- |
| BE3C:uPA | 0.0005 ± 0.0035 | 0.0305 ± 0.012 | -0.005 ± 0.014 | -0.006 ± 0.0042 | 0.007 ± 0.02 | -0.022 ± 0.014 | -0.004 ± 0.0042 | -0.0065 ± 0.00071 | -0.0015 ± 0.00071 | -0.0105 ± 0.00071 | -0.0025 ± 0.0035 | 0.0115 ± 0.016 | 0.009 ± 0.0099 | 0.0105 ± 0.0078 | -0.01 ± 0.0057 | -0.013 ± 0.0085 | -0.0045 ± 0.013 | -0.005 ± 0.02 | -0.211 ± 0.029 |
| CASM3C:CCL2/MCP-1 | -0.001 ± 0.0014 | 0.008 ± 0.016 | 0.0035 ± 0.022 | 0 ± 0.031 | 0.034 ± 0.028 | -0.007 ± 0.023 | -0.0275 ± 0.00071 | 0.004 ± 0.014 | -0.0055 ± 0.0021 | -0.021 ± 0.011 | 0.018 ± 0.045 | -0.014 ± 0.0028 | 0.001 ± 0.0099 | -0.001 ± 0.0014 | -0.0055 ± 0.013 | -0.011 ± 0.018 | 0.015 ± 0.045 | 0.0005 ± 0.0035 | 0.012 ± 0.024 |
| CASM3C:CD87/uPAR | -0.015 ± 0.027 | -0.0165 ± 0.026 | -0.0105 ± 0.023 | -0.025 ± 0.013 | -0.0165 ± 0.012 | -0.023 ± 0.0057 | -0.017 ± 0.035 | -0.019 ± 0.017 | -0.017 ± 0.0042 | 0.0205 ± 0.029 | -0.0015 ± 0.00071 | -0.0215 ± 0.013 | -0.023 ± 0.0014 | 0.0025 ± 0.00071 | -0.0115 ± 0.015 | -0.0035 ± 0.0078 | -0.019 ± 0.017 | -0.0165 ± 0.011 | -0.025 ± 0.0071 |
| CASM3C:CD106/VCAM-1 | -0.024 ± 0.011 | -0.04 ± 0.021 | -0.024 ± 0.0099 | -0.0175 ± 0.022 | -0.01 ± 0.034 | -0.015 ± 0.035 | -0.031 ± 0.014 | 0.0055 ± 0.013 | -0.023 ± 0.013 | -0.0245 ± 0.019 | -0.028 ± 0.0042 | -0.0405 ± 0.039 | -0.0105 ± 0.0035 | 0.01 ± 0.042 | -0.009 ± 0.0057 | -0.003 ± 0.014 | -0.008 ± 0.014 | -0.016 ± 0.027 | -0.023 ± 0.021 |
| CASM3C:CD141/Thrombomodulin | -0.0085 ± 0.005 | 0.023 ± 0.018 | 0.011 ± 0.011 | 0.005 ± 0.013 | 0.0225 ± 0.029 | -0.0145 ± 0.047 | -0.0265 ± 0.018 | 0.001 ± 0.035 | -0.025 ± 0.0099 | -0.039 ± 0.0085 | -0.0125 ± 0.013 | 0.011 ± 0.089 | -0.024 ± 0.064 | -0.0285 ± 0.06 | -0.008 ± 0.0042 | 0.0085 ± 0.025 | 0.0085 ± 0.0092 | -0.015 ± 0.021 | -0.0085 ± 0.019 |
| CASM3C:CXCL8/IL-8 | -0.004 ± 0.0085 | 0.013 ± 0.0085 | 0.011 ± 0.016 | 0.011 ± 0.0099 | 0.0295 ± 0.025 | 0 ± 0.017 | 0.0005 ± 0.0078 | -0.0035 ± 0.00071 | 0.0015 ± 0.012 | -0.014 ± 0.014 | -0.001 ± 0.014 | -0.003 ± 0.018 | -0.0105 ± 0.012 | 0.0065 ± 0.018 | -0.006 | -0.006 | 0.004 ± 0.031 | -0.001 ± 0.0057 | -0.011 ± 0.0014 |
| CASM3C:CXCL9/MIG | -0.0025 ± 0.0078 | -0.007 ± 0.013 | -0.014 ± 0.025 | -0.007 ± 0.016 | 0.0005 ± 0.026 | -0.01 ± 0.011 | -0.0145 ± 0.023 | 0.004 ± 0.013 | -0.0295 ± 0.0021 | -0.0225 ± 0.0021 | -0.002 ± 0.038 | -0.011 ± 0.013 | -0.029 ± 0.051 | -0.0075 ± 0.074 | -0.0075 ± 0.021 | -0.0055 ± 0.0035 | 0.0005 ± 0.0078 | 0 ± 0.0071 | -0.009 ± 0.018 |
